pIC50: −log10 of the molar value.

This experiment concerns the target Beta-3 Adrenergic Receptor (Homo sapiens (Human), UniProt P13945). The experiment can be described thus: HTRF cAMP antagonist assay (IC50 determination). In kind it is cell-based. The note with it: CHO-K1 cells stably expressing recombinant receptor; antagonism of isoproterenol at EC90; cAMP readout. The gist of the method: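 In this functional readout, recombinant CHO-K1 cells received compound, then isoproterenol at its EC90. After 1 h at room temperature, cAMP levels were determined by HTRF using an on-plate standard curve, and IC50 values were fitted.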

Chain of Beta-3 Adrenergic Receptor (P13945 whole entry, species assumed): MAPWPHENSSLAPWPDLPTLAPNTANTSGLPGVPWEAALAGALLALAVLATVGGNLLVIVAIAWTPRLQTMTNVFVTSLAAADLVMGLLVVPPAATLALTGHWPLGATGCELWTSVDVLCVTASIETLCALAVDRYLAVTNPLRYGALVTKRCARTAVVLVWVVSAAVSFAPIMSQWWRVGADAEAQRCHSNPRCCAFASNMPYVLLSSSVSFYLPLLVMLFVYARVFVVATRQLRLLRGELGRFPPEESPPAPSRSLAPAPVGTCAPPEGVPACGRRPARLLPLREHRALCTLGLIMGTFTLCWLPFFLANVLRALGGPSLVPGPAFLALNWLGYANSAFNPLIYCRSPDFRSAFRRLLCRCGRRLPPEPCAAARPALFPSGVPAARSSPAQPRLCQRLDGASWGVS

Regarding `NCc1ccc(-c2cccc(S(=O)(=O)N3CCC4(CC3)C[C@@H](NC[C@H](O)COc3cccc(S(=O)(=O)C5(CO)CC5)c3)CO4)c2)cc1` [Compound 157, (S)-1-((R)-8-(4′-(aminomethyl)biphenyl-3-ylsulfonyl)-1-oxa-8-azaspiro[4.5]decan-3-ylamino)-3-(3-(1-(hydroxymethyl)cyclopropylsulfonyl)phenoxy)propan-2-ol], the negative logarithm of the IC50 (pIC50) (usually −log10 of the IC50, conventionally taken in molar units) was 7.59.
With `CCOc1ccc(-c2ccc(CN)cc2)cc1S(=O)(=O)N1CCC2(CC1)C[C@@H](NC[C@H](O)COc1cccc(S(=O)(=O)C3(CO)CC3)c1)CO2` [Compound 158, (S)-1-((R)-8-(4′-(aminomethyl)-4-ethoxybiphenyl-3-ylsulfonyl)-1-oxa-8-azaspiro[4.5]decan-3-ylamino)-3-(3-(1-(hydroxymethyl)cyclopropylsulfonyl)phenoxy)propan-2-ol] the figure was 7.56.
For `CN1CCOc2ncc(S(=O)(=O)N3CCC4(CC3)C[C@@H](NC[C@H](O)COc3cccc(S(=O)(=O)CC(N)=O)c3)CO4)cc21` [Compound 159, 2-(3-((S)-2-hydroxy-3-((R)-8-(1-methyl-2,3-dihydro-1H-pyrido[2,3-b][1,4]oxazin-7-ylsulfonyl)-1-oxa-8-azaspiro[4.5]decan-3-ylamino)propoxy)phenylsulfonyl)acetamide], the pIC50 was 6.75.
With `CCOc1ccc(-c2ccc(CN)cc2)cc1S(=O)(=O)N1CCC2(CC1)C[C@H](NC[C@H](O)COc1cccc(S(=O)(=O)C3CC3)c1)CO2` [Compound 160, (S)-1-((S)-8-(4′-(aminomethyl)-4-ethoxybiphenyl-3-ylsulfonyl)-1-oxa-8-azaspiro[4.5]decan-3-ylamino)-3-(3-(cyclopropylsulfonyl)phenoxy)propan-2-ol] the figure was 7.94.
`CCOc1ccc(-c2ccc(CN)cc2)cc1S(=O)(=O)N1CCC2(CC1)C[C@@H](NC[C@H](O)COc1cccc(S(=O)(=O)C(F)(F)CO)c1)CO2` [Compound 161, (S)-1-((R)-8-(4′-(aminomethyl)-4-ethoxybiphenyl-3-ylsulfonyl)-1-oxa-8-azaspiro[4.5]decan-3-ylamino)-3-(3-(1,1-difluoro-2-hydroxyethylsulfonyl)phenoxy)propan-2-ol]: the pIC50 was 7.67.
As to `NCc1ccc(-c2ccc(F)c(S(=O)(=O)N3CCC4(CC3)C[C@H](NC[C@H](O)COc3cccc(S(=O)(=O)C5(CO)CC5)c3)CO4)c2)cc1` [Compound 162, (S)-1-((S)-8-(4′-(aminomethyl)-4-fluorobiphenyl-3-ylsulfonyl)-1-oxa-8-azaspiro[4.5]decan-3-ylamino)-3-(3-(1-(hydroxymethyl)cyclopropylsulfonyl)phenoxy)propan-2-ol], the pIC50 was 7.53.
As to `NCc1ccc(-c2cccc(S(=O)(=O)N3CCC4(CC3)C[C@H](NC[C@H](O)COc3cccc(S(=O)(=O)C5(CO)CC5)c3)CO4)c2)cc1` [Compound 164, (S)-1-((S)-8-(4′-(aminomethyl)biphenyl-3-ylsulfonyl)-1-oxa-8-azaspiro[4.5]decan-3-ylamino)-3-(3-(1-(hydroxymethyl)cyclopropylsulfonyl)phenoxy)propan-2-ol], the pIC50 was 7.56.
On to `CCOc1ccc(-c2ccc(CNC(C)C)cc2)cc1S(=O)(=O)N1CCC2(CC1)C[C@@H](NC[C@H](O)COc1cccc(S(=O)(=O)C3(CO)CC3)c1)CO2` [Compound 165, (S)-1-((R)-8-(4-ethoxy-4′-((isopropylamino)methyl)biphenyl-3-ylsulfonyl)-1-oxa-8-azaspiro[4.5]decan-3-ylamino)-3-(3-(1-(hydroxymethyl)cyclopropylsulfonyl)phenoxy)propan-2-ol], for which the pIC50 is 7.19.
Turning to `CC(C)Oc1ccc(-c2ccc(CN)cc2)cc1S(=O)(=O)N1CCC2(CC1)C[C@H](NC[C@H](O)COc1cccc(S(=O)(=O)C3CC3)c1)CO2` [Compound 166, (S)-1-((S)-8-(4′-(aminomethyl)-4-isopropoxybiphenyl-3-ylsulfonyl)-1-oxa-8-azaspiro[4.5]decan-3-ylamino)-3-(3-(cyclopropylsulfonyl)phenoxy)propan-2-ol], the pIC50 was 7.29.
On to `CCOc1ccc(-c2ccc(CN)cc2)cc1S(=O)(=O)N1CCC2(CC1)C[C@H](NC[C@H](O)COc1cccc(S(=O)(=O)C(F)(F)CO)c1)CO2` [Compound 168, (S)-1-((S)-8-(4′-(aminomethyl)-4-ethoxybiphenyl-3-ylsulfonyl)-1-oxa-8-azaspiro[4.5]decan-3-ylamino)-3-(3-(1,1-difluoro-2-hydroxyethylsulfonyl)phenoxy)propan-2-ol], for which the negative-log IC50 (pIC50) is 7.81.
The figure for `NCc1ccc(-c2ccc(F)c(S(=O)(=O)N3CCC4(CC3)C[C@@H](NC[C@H](O)COc3cccc(S(=O)(=O)C5(CO)CC5)c3)CO4)c2)cc1` [Compound 169, (S)-1-((R)-8-(4′-(aminomethyl)-4-fluorobiphenyl-3-ylsulfonyl)-1-oxa-8-azaspiro[4.5]decan-3-ylamino)-3-(3-(1-(hydroxymethyl)cyclopropylsulfonyl)phenoxy)propan-2-ol] is 7.76; for `Cc1ccc(-c2cccc(S(=O)(=O)N3CCC4(CC3)C[C@@H](NC[C@H](O)COc3cccc(S(=O)(=O)C5(CO)CC5)c3)CO4)c2)cc1` [Compound 170, (S)-1-(3-(1-(hydroxymethyl)cyclopropylsulfonyl)phenoxy)-3-((R)-8-(4′-methylbiphenyl-3-ylsulfonyl)-1-oxa-8-azaspiro[4.5]decan-3-ylamino)propan-2-ol] it is 6.38.
`CC(C)Oc1ccc(-c2ccc(CN)cc2)cc1S(=O)(=O)N1CCC2(CC1)C[C@@H](NC[C@H](O)COc1cccc(S(=O)(=O)C3CC3)c1)CO2` [Compound 171, (S)-1-((R)-8-(4′-(aminomethyl)-4-isopropoxybiphenyl-3-ylsulfonyl)-1-oxa-8-azaspiro[4.5]decan-3-ylamino)-3-(3-(cyclopropylsulfonyl)phenoxy)propan-2-ol]: the pIC50 was 7.60.
Take `CCOc1ccc(-c2ccc(C3(N)CC3)cc2)cc1S(=O)(=O)N1CCC2(CC1)C[C@@H](NC[C@H](O)COc1cccc(S(=O)(=O)C3(CO)CC3)c1)CO2` [Compound 172, (S)-1-((R)-8-(4′-(1-aminocyclopropyl)-4-ethoxybiphenyl-3-ylsulfonyl)-1-oxa-8-azaspiro[4.5]decan-3-ylamino)-3-(3-(1-(hydroxymethyl)cyclopropylsulfonyl)phenoxy)propan-2-ol]: the pIC50 is 7.30.
`NC1(c2ccc(-c3cccc(S(=O)(=O)N4CCC5(CC4)C[C@@H](NC[C@H](O)COc4cccc(S(=O)(=O)C6(CO)CC6)c4)CO5)c3)cc2)CC1` [Compound 173, (S)-1-((R)-8-(4′-(1-aminocyclopropyl)biphenyl-3-ylsulfonyl)-1-oxa-8-azaspiro[4.5]decan-3-ylamino)-3-(3-(1-(hydroxymethyl)cyclopropylsulfonyl)phenoxy)propan-2-ol]: the pIC50 was 7.51.
As to `CCOc1ccc(-c2ccc(C(C)(C)CN)cc2)cc1S(=O)(=O)N1CCC2(CC1)C[C@@H](NC[C@H](O)COc1cccc(S(=O)(=O)C3(CO)CC3)c1)CO2` [Compound 174, (S)-1-((R)-8-(4′-(1-amino-2-methylpropan-2-yl)-4-ethoxybiphenyl-3-ylsulfonyl)-1-oxa-8-azaspiro[4.5]decan-3-ylamino)-3-(3-(1-(hydroxymethyl)cyclopropylsulfonyl)phenoxy)propan-2-ol], the negative-log IC50 (pIC50) is 6.16.

(Values after US10927123B2, “Modulators of the beta-3 adrenergic receptor useful for the treatment or prevention of disorders related thereto” (Arena Pharmaceuticals, Inc., priority 2016, dated 2021).)
